Among the test systems are A549 NSCLC; CAKI-1 renal; HCT-116 colon; HOP-62 NSCLC; MOLT-4 leukemia; SK-MEL-28 melanoma; SK-OV-3 ovarian; SR leukemia; T-47D breast.
What all share (experiment): growth of human tumour cells (NCI), 48 h

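Briefly, cells in 96-well plates were exposed to five compound concentrations for 48 h, and endpoints were estimated by linear interpolation. TGI: total growth inhibition.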

For `Cc1nn(-c2ccccn2)c2c1C(SC#N)=C(C=O)CC2`, the TGI in the assay on A549 NSCLC worked out at 46 µM; in the assay with CAKI-1 renal, 19 µM; in the assay with HCT-116 colon, 37.1 µM; in the assay with HOP-62 NSCLC, 22.3 µM; in the assay with MOLT-4 leukemia it was 6.95 µM; in the assay on SK-MEL-28 melanoma, 45.9 µM. The TGI with SK-OV-3 ovarian turned out to be 61.5 µM; in the assay on SR leukemia, 34.3 µM; in the assay with T-47D breast, 20.3 µM.
For the compound `COc1ccc(N2C(=O)/C(=C/c3ccc(N(CCC#N)CCC#N)cc3)N=C2c2ccccc2)c(OC)c1`, the TGI is greater than 100 µM in the assay with CAKI-1 renal; greater than 100 µM in the assay on HCT-116 colon; greater than 100 µM in the assay with MOLT-4 leukemia; greater than 100 µM in the assay on SK-MEL-28 melanoma; greater than 100 µM with SK-OV-3 ovarian; 60.3 µM in the assay on SR leukemia. Moreover, in the assay on T-47D breast, the TGI stood at 69.5 µM.
For the compound `O=S(=O)(O)c1ccc(Nc2ccnc3cc(Cl)ccc23)cc1`, the TGI in the assay with A549 NSCLC, with CAKI-1 renal, with HCT-116 colon, in the assay on HOP-62 NSCLC, in the assay with MOLT-4 leukemia and in the assay on SK-MEL-28 melanoma was greater than 100 µM in each case. In addition, the TGI in the assay on SK-OV-3 ovarian, with SR leukemia and in the assay with T-47D breast was greater than 100 µM in each case.
For `COc1ccc(C2NC(=O)Nc3c2c(=O)oc2c3ccc3ccccc32)cc1` (stereo unspecified), the TGI in the assay on A549 NSCLC, with CAKI-1 renal, in the assay with HCT-116 colon, with HOP-62 NSCLC, with MOLT-4 leukemia and in the assay with SK-MEL-28 melanoma was greater than 100 µM in each case. Also, the TGI in the assay with SK-OV-3 ovarian, in the assay on SR leukemia and with T-47D breast was greater than 100 µM each time.
With `CCCCCCCCC[n+]1cccc(C2C(C(=O)OCC)=C(C)NC(C)=C2C(=O)OCC)c1`, the TGI in the assay with A549 NSCLC stood at 36.1 µM; in the assay on CAKI-1 renal, 28.2 µM; in the assay with HCT-116 colon it was 30.5 µM; with HOP-62 NSCLC, 28.7 µM; in the assay on MOLT-4 leukemia, 19.2 µM; in the assay with SK-MEL-28 melanoma, 7.28 µM. The TGI with SK-OV-3 ovarian was 26.5 µM; in the assay on SR leukemia, greater than 25.3 µM; in the assay with T-47D breast, 20.3 µM.
For `C=C1C(=O)O[C@H]2[C@H]([C@H](C)CCCC(C)=O)O[C@H]([C@@]3(C)CCC(=O)O3)C[C@@H]12`, the TGI with A549 NSCLC is greater than 100 µM; in the assay on CAKI-1 renal, 54.3 µM; in the assay on HCT-116 colon, 85.5 µM; with HOP-62 NSCLC, greater than 100 µM; with MOLT-4 leukemia, greater than 100 µM; in the assay on SK-MEL-28 melanoma, greater than 100 µM. Moreover, the TGI in the assay on SK-OV-3 ovarian, in the assay on SR leukemia and in the assay with T-47D breast was greater than 100 µM each time.
On to `COC(=O)/C=C\C(C#N)(C#N)N=Cc1ccsc1`, for which the TGI in the assay with A549 NSCLC came to 33 µM; with CAKI-1 renal, 6.07 µM; in the assay on HCT-116 colon, 3.57 µM; in the assay on HOP-62 NSCLC it was 30.9 µM; in the assay with MOLT-4 leukemia it was 5 µM; in the assay on SK-MEL-28 melanoma, 7.43 µM. Also, the TGI is 31.3 µM in the assay on SK-OV-3 ovarian, 0.645 µM in the assay on SR leukemia and 4.17 µM in the assay on T-47D breast.
Consider `COc1ccc(C(C)NNC(=O)c2ccncc2)cc1F` (stereo unspecified), for which the TGI in the assay on A549 NSCLC, with CAKI-1 renal, in the assay on HCT-116 colon, with HOP-62 NSCLC, in the assay on MOLT-4 leukemia and in the assay on SK-MEL-28 melanoma was greater than 100 µM throughout. In addition, the TGI in the assay with SK-OV-3 ovarian, with SR leukemia and with T-47D breast was greater than 100 µM in each case.
Regarding `O=C(NC/C=C/Br)NC1CCNc2ccccc21` (stereo unspecified), the TGI in the assay on A549 NSCLC was greater than 100 µM; in the assay on CAKI-1 renal, greater than 100 µM; with HCT-116 colon, greater than 100 µM; in the assay with HOP-62 NSCLC, greater than 100 µM; with MOLT-4 leukemia, 95.4 µM; in the assay with SK-MEL-28 melanoma, greater than 100 µM. Further, the TGI with SK-OV-3 ovarian was greater than 100 µM; in the assay with SR leukemia, 61.8 µM; in the assay on T-47D breast, 93.9 µM.
As for `N#Cc1c(C#N)c(-c2ccccc2)n(/N=C\c2ccccc2)c1N`, the TGI is 71.4 µM with A549 NSCLC; greater than 100 µM in the assay with CAKI-1 renal; greater than 100 µM in the assay on HCT-116 colon; greater than 100 µM with HOP-62 NSCLC; 30.9 µM in the assay with MOLT-4 leukemia; 70.2 µM in the assay with SK-OV-3 ovarian. The TGI in the assay on SR leukemia is 82.9 µM; in the assay with T-47D breast, 29.1 µM.
With `COC(=O)c1c(C#C[Si](C)(C)C)c(C#C[Si](C)(C)C)c(C#C[Si](C)(C)C)c(C#C[Si](C)(C)C)c1C(=O)OC`, the TGI in the assay with A549 NSCLC, in the assay with CAKI-1 renal, in the assay with HCT-116 colon, in the assay with MOLT-4 leukemia, in the assay with SK-MEL-28 melanoma and with SK-OV-3 ovarian was greater than 100 µM in each case. Besides, the TGI in the assay on SR leukemia and with T-47D breast was greater than 100 µM each time.
As to `CSC1NNC2(C(=O)N1)c1ccccc1-c1ccccc12` (stereo unspecified), the TGI in the assay with A549 NSCLC, in the assay with CAKI-1 renal, with HCT-116 colon, with HOP-62 NSCLC, in the assay with MOLT-4 leukemia and with SK-MEL-28 melanoma was greater than 10 µM throughout. For the same compound, the TGI in the assay on SK-OV-3 ovarian, in the assay on SR leukemia and with T-47D breast was greater than 10 µM in each case.
With `Cc1nnc(CC#N)n1NC(=O)CC#N`, the TGI in the assay with A549 NSCLC, in the assay on CAKI-1 renal, in the assay on HCT-116 colon, with HOP-62 NSCLC, with MOLT-4 leukemia and with SK-MEL-28 melanoma was greater than 100 µM throughout. The TGI with SK-OV-3 ovarian, in the assay with SR leukemia and with T-47D breast was greater than 100 µM throughout.
On to `COc1ccccc1N1C(=O)/C(=C\c2cccc(Oc3ccccc3)c2)S(=O)(=O)C1c1ccccc1` (stereo unspecified), for which the TGI with A549 NSCLC is greater than 100 µM; with CAKI-1 renal it was greater than 100 µM; with HCT-116 colon, greater than 100 µM; in the assay with HOP-62 NSCLC, greater than 100 µM; with MOLT-4 leukemia, 32.8 µM; in the assay with SK-MEL-28 melanoma, greater than 100 µM. Moreover, the TGI in the assay with SK-OV-3 ovarian is greater than 100 µM; in the assay on SR leukemia, 56.2 µM; with T-47D breast it was greater than 100 µM.
With `CC1(C)O[C@@H](CP(c2cccc3ccccc23)c2cccc3ccccc23)[C@H](CP(c2cccc3ccccc23)c2cccc3ccccc23)O1`, the TGI in the assay on A549 NSCLC, in the assay on CAKI-1 renal, with HCT-116 colon, in the assay with HOP-62 NSCLC, in the assay on MOLT-4 leukemia and in the assay on SK-MEL-28 melanoma was greater than 100 µM in each case. Besides, the TGI in the assay with SK-OV-3 ovarian, in the assay with SR leukemia and with T-47D breast was greater than 100 µM throughout.

Source of the values: PubChem BioAssay (NCI).
